The record followed here is article PMC10895676, “Antiviral Activity of Lipophilic Nucleoside Tetraphosphate Compounds” (Journal of Medicinal Chemistry, 2024).

For one series, the target named is T1, human DNA polymerase β (Homo sapiens, UniProt P06746).
T1 construct: purchased Chimerx
The experiment in a line: Primer extension assay using human DNA polymerase β. Particulars: 60 min, 2 U, 37 °C. Format: biochemical. An excerpt:
Encouraged by the previously obtained results that γ-phosphate-modified-d4TDPs 3, γ-monoalkylated d4TTP derivatives as well as d4TDP were accepted as substrates by HIV-RT,[49],[50],[55],[59]−[61] δ-dialkylated d4T tetraphosphate analogues 4,5, δ-monoalkylated d4T tetraphosphate analogues 20 and 24 and d4T4P were investigated in primer extension assays in the presence of HIV-RT or the three different human DNA polymerases α, β and γ. D4TTP (for the compounds 4–9) and the natural thymidine triphosphate (TTP) were used as reference compounds.
Figure 6 Primer extension assay using HIV-RT (A), human polymerases α (B), β (C), and γ (D). (Figure 6A). Primer extension assay using HIV-RT (30 min, 6U). Lane 1: (+) dATP, dCTP, dGTP, and TTP with HIV-RT. Lane 2: (−) dATP, dCTP, dGTP, and TTP without HIV-RT. Lane 3: TTP. […] Lane 5: δ-(C4; C18)-d4T4P 4d. […] Lane 7: δ-(C18)-d4T4P 20. Lane 8: δ-C-(C18)-d4T4P 24. Lane 9: d4T4P. Lane 10: d4TTP. Lane 11: d4TDP. HIV-RT assay reaction conditions: 50 mM Tris–HCl (pH 8.6), 10 mM MgCl2, 40 mM KCl, 250 μM dNTPs, HIV-RT (6 U), 0.20 μM DNA hybrid, primer-template-hybrid 0.32 mM in a reaction volume of 10 μL, incubated at 37 °C for 0.5 h, 80 °C for 7 min. Primer extension assays: 50 mA, 45 w for 4 h. (Figure 6B). For human DNA polymerase α assay (60 min, 2 U): Lane 1: (+) dATP, dCTP, dGTP, and TTP with human polymerase α. Lane 2: (−) dATP, dCTP, dGTP, and TTP without human polymerase α. Lane 3: TTP. […] Lane 5: δ-(C4; C18)-d4T4P 4d. […] Lane 7: δ-(C18)-d4T4P 20. Lane 8: δ-C-(C18)-d4T4P 24. Lane 9: d4T4P. Lane 10: d4TTP. Human DNA polymerase α assay conditions: 60 mM Tris–HCl (pH 8), 5 mM Mg(OAc)2, 100 mM KCl, 1.0 mM dithiothreitol, 0.1 mM spermine, 0.01% (w/v) bovine serum albumin, 250 μM dNTPs, 2 U human polymerase α, 0.20 μM DNA hybrid, and primer-template-hybrid 0.32 mM in a reaction volume of 10 μL, incubated at 37 °C for 1 h, 80 °C for 7 min. Primer extension assays: 50 mA, 45 w for 3 h. (Figure 6C). For human DNA polymerase β assay (60 min, 2 U): Lane 1: (+) dATP, dCTP, dGTP, and TTP with human polymerase β. Lane 2: (−) dATP, dCTP, dGTP, and TTP without human polymerase β. Lane 3: TTP. […] Lane 5: δ-(C4; C18)-d4T4P 4d. […] Lane 7: δ-(C18)-d4T4P 20. Lane 8: δ-C-(C18)-d4T4P 24. Lane 9: d4T4P. Lane 10: d4TTP. Human DNA polymerase β assay conditions: 50 mM Tris–HCl (pH 8.7), 10 mM Mg(OAc)2, 100 mM KCl, 1.0 mM dithiothreitol, 0.1 mM spermine, 0.01% (w/v) bovine serum albumin, 15% glycerol, 250 μM dNTPs, 2 U human DNA polymerase β, 0.20 μM DNA hybrid, and primer-template-hybrid 0.32 mM in a reaction volume of 10 μL, incubated at 37 °C for 1 h, 80 °C for 7 min. Primer extension assays: 50 mA, 45 w for 3 h. (Figure 6D), For the human DNA polymerase γ assay (120 min, 2 U): Lane 1: (+) dATP, dCTP, dGTP, and TTP with human polymerase γ. Lane 2: (−) dATP, dCTP, dGTP, and TTP without human polymerase γ. Lane 3: TTP. […] Lane 5: δ-(C4; C18)-d4T4P 4d. […] Lane 7: δ-(C18)-d4T4P 20. Lane 8: δ-C-(C18)-d4T4P 24. Lane 9: d4T4P. Lane 10: d4TTP. Human polymerase γ assay conditions: 60 mM Tris–HCl (pH 8), 5 mM Mg(OAc)2, 1.0 mM dithiothreitol, 0.1 mM spermine, 0.01% (w/v) bovine serum albumin, 250 μM dNTPs, 2 U human polymerase γ, 0.5 μM MnCl2, 0.20 μM DNA hybrid, primer-template-hybrid 0.32 mM in a reaction volume of 10 μL, incubated at 37 °C for 2 h, 80 °C for 7 min. Primer extension assays: 50 mA, 45 w for 3 h.
HIV-RT and human polymerases α, β, and γ were bought from Roboklon and Chimerx. The fluorescent-labeled primer and template were obtained from Metabion. […]

In another series the test system is HIV-2 (ROD). Nature of the series: Anti-HIV replication assay, HIV-2 (ROD) in thymidine kinase-deficient CEM/TK– cells. Format: cell-based. Particulars: for improvement of antiviral activity as compared to the parent d4T: HIV-2, CEM/TK– cells; for EC50: read-out: CEM/TK– HIV-2 (ROD) EC50; for selectivity index (SI): CC50/EC50, HIV-2 (ROD) in CEM/TK– cells. The method in brief: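 Wild-type CEM/0 or thymidine kinase-deficient CEM/TK– T-cells (~3 × 10^5 cells/mL) were infected with 100 CCID50/mL HIV-2(ROD) in the presence of compound dilutions. After 4–5 days at 37 °C, virus-induced cytopathicity and syncytium formation were scored microscopically.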

Series [1] in a line: Cytotoxicity, inhibition of CEM cell proliferation. Type of series: cell-based. Particulars: human, CEM cells (CD4+ T-cells), read-out: toxicity CC50.
The mark [2] stands for this setting: Human immunodeficiency virus 2, CEM/TK– cells, mean ± SD, n = 2–3.

“Also recorded” adds a separate entry of the source. Read-outs that look alike come from different tables or passages of the source. Some results are limits rather than exact numbers.

With `CCCCCCCCCCCCCCCCCCP(=O)(OCCCC)OP(=O)(O)OP(=O)(O)OP(=O)(O)OC[C@@H]1C=C[C@H](n2cc(C)c(=O)[nH]c2=O)O1` (stereo partly shown) [5a, δ-(Alkyl-C4)-δ-C-(alkyl-C18)-d4T4P], on human DNA polymerase β, the “substrate for human DNA polymerase β (primer extension)” value (“substrate for human DNA polymerase β” below) is recorded as “No incorporation of d4TMP”. Besides, the “improvement of antiviral activity as compared to the parent d4T” value in the series with HIV-2 (ROD) was more than 1100 fold. Moreover, the EC50 in the series with HIV-2 (ROD) (Human immunodeficiency virus 2, CEM-TK(-)) stood at 0.043 ± 0.026 µM. The CC50 (as a rule, the concentration that lowers cell viability or growth by half) in series [1] stood at 44.6 µM.

In the case of `Cc1cn([C@H]2C=C[C@@H](COP(=O)(O)OP(=O)(O)OP(=O)(O)OP(=O)(O)O)O2)c(=O)[nH]c1=O` [d4T4P, 2′,3′-didehydro-2′,3′-dideoxythymidine-5′-tetraphosphate], the “substrate for human DNA polymerase β” value on human DNA polymerase β was “efficiently incorporated; also recorded: substrate”. The “selectivity index (SI)” value with HIV-2 (ROD) is reported as more than 3. The EC50 in the series with HIV-2 (ROD) (setting [2]) is 33.8 ± 21.3 µM. Besides, the half-maximal cytotoxic concentration (CC50) in series [1] was more than 100 µM.

Turning to `CCCCCCCCCCCCCCCCCCOP(=O)(OCCCC)OP(=O)(O)OP(=O)(O)OP(=O)(O)OC[C@@H]1C=C[C@H](n2cc(C)c(=O)[nH]c2=O)O1` (stereo partly shown) [4d, δ-(Alkyl-C4; alkyl-C18)-d4T4P], the “substrate for human DNA polymerase β” value at human DNA polymerase β is recorded as “not accepted”. In addition, in the series on HIV-2 (ROD), the “selectivity index (SI)” value came to 260 and the “improvement of antiviral activity as compared to the parent d4T” value is recorded as more than 270 fold. In addition, in the series with HIV-2 (ROD) (setting [2]), the EC50 came to 0.18 ± 0.15 µM. Further, in series [1], the CC50 is 43.9 µM.

As for `CCCCCCCCCCCCCCCCCCOP(=O)(O)OP(=O)(O)OP(=O)(O)OP(=O)(O)OC[C@@H]1C=C[C@H](n2cc(C)c(=O)[nH]c2=O)O1` [compound 20, δ-(Alkyl-C18)-d4T4P], in the series with HIV-2 (ROD), the “selectivity index (SI)” value was more than 21. For the same molecule, in the series on HIV-2 (ROD) (setting [2]), the EC50 was determined as 4.6 ± 0.33 µM. In addition, the CC50 in series [1] is more than 100 µM.

Consider `CCCCCCCCCCCCCCCCCCP(=O)(O)OP(=O)(O)OP(=O)(O)OP(=O)(O)OC[C@@H]1C=C[C@H](n2cc(C)c(=O)[nH]c2=O)O1` [compound 24, δ-C-(Alkyl-C18)-d4T4P], for which the “selectivity index (SI)” value in the series on HIV-2 (ROD) is listed as 30. For the same molecule, the EC50 with HIV-2 (ROD) (setting [2]) is 1.35 ± 0.63 µM. Moreover, in series [1], the CC50 amounted to 23.2 µM.
